Assay results from patent US20240158446A1, “CYCLIC COMPOUND HAVING SELECTIVE INHIBITORY ACTION ON KRAS OVER HRAS AND NRAS” (CHUGAI SEIYAKU KABUSHIKI KAISHA, priority 2021, published 2024).
Read-outs that look alike come from different tables or passages of the source. *1 amine or outer side, *2 acyl side, *3 side chain or, on linkers, in order; H or OH if unused. Where a SMILES comes first, the peptide text is derived from it. Bridges are numbered along the chain shown (N, C = ends). [ ]: non-standard residue; d: D form. The star is where a group is joined. hPhe(3-Cl-4-CF3) = N[C@@H](CCc1ccc(C(F)(F)F)c(Cl)c1)C(=O)O; X45 = O=C([C@H](Cc1ccc(C(F)(F)F)cc1)N(CCCF)[*:1])[*:2]; NPrPhe(4-CF3) = CCCN[C@@H](Cc1ccc(C(F)(F)F)cc1)C(=O)O; NMeGly(cPent) = CN[C@H](C(=O)O)C1CCCC1; NMeD = CN[C@@H](CC(=O)O)C(=O)O; NMeL = CN[C@@H](CC(C)C)C(=O)O; Morpholide = C1CN(*)CCO1; NMeA = CN[C@@H](C)C(=O)O; Ac5c = NC1(C(=O)O)CCCC1; Aze = O=C(O)[C@@H]1CCN1; Sar = CNCC(=O)O

Columns and labels:
[1] = target: GDP-bound KRAS wild-type protein (Homo sapiens, UniProt P01116); experiment: Binding to KRAS by surface plasmon resonance (SPR), Single Cycle Kinetics; conditions: GDP-bound KRAS wild-type protein, read-out: KRAS KD
[2] = target: GDP-bound NRAS wild-type protein (Homo sapiens, UniProt P01111); experiment: Binding to NRAS by surface plasmon resonance (SPR), Single Cycle Kinetics; conditions: for NRAS/KRAS (ratio of KD value with respect to NRAS to KD value with respect to KRAS) / NRAS/KRAS (ratio of KD value for NRAS to KD value for KRAS): SPR, GDP-bound NRAS wild-type protein vs GDP-bound KRAS wild-type protein
[3] = target: GDP-bound HRAS wild-type protein (Homo sapiens, UniProt P01112); experiment: Binding to HRAS by surface plasmon resonance (SPR), Single Cycle Kinetics; conditions: for HRAS/KRAS (ratio of KD value with respect to HRAS to KD value with respect to KRAS) / HRAS/KRAS (ratio of KD value for HRAS to KD value for KRAS): SPR, GDP-bound HRAS wild-type protein vs GDP-bound KRAS wild-type protein
[4] = SPR Single Cycle Kinetics, 1:1 binding model

GDP-bound KRAS wild-type protein, sequence (P01116 whole entry): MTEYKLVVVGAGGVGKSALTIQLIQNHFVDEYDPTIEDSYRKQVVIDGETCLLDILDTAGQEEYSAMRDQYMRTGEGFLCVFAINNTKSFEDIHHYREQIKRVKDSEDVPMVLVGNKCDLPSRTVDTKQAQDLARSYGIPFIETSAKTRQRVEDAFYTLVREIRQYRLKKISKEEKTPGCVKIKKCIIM
GDP-bound NRAS wild-type protein, sequence (P01111 whole entry): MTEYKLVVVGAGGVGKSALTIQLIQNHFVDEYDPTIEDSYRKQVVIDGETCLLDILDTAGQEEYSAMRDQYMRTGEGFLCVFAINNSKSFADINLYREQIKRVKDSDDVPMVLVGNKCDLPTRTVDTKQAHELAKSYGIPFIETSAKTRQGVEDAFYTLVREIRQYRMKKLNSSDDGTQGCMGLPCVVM
GDP-bound HRAS wild-type protein, sequence (P01112 whole entry): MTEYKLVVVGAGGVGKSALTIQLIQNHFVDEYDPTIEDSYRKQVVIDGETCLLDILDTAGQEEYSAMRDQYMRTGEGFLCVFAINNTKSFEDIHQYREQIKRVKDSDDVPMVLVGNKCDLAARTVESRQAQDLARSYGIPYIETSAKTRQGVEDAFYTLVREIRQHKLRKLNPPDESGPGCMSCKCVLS

| Compound | Kd [1, 4] | NRAS/KRAS (ratio of KD value with respect to NRAS to KD value with respect to KRAS) [2] | HRAS/KRAS (ratio of KD value with respect to HRAS to KD value with respect to KRAS) [3] | Kd ([1]; SPR, Single Cycle Kinetics) | NRAS/KRAS (ratio of KD value for NRAS to KD value for KRAS) [2] | HRAS/KRAS (ratio of KD value for HRAS to KD value for KRAS) [3] | further results |
| --- | --- | --- | --- | --- | --- | --- | --- |
| CC[C@H](C)[C@@H]1NC(=O)[C@H](CC(C)C)N(C)C(=O)C[C@@H](C(=O)N2CCOCC2)N(C)C(=O)[C@H](C2CCCC2)N(C)C(=O)C2(CCCC2)NC(=O)[C@@H]2CCCN2C(=O)[C@H](CCc2ccc(C(F)(F)F)c(Cl)c2)NC(=O)CN(C)C(=O)[C@H](Cc2ccc(C(F)(F)F)cc2)N(CCCF)C(=O)[C@@H]2CCN2C(=O)[C@H](C)N(C)C1=O [PP0525] ([NMeL]I[NMeA][Aze][X45][Sar][hPhe(3-Cl-4-CF3)]P[Ac5c][NMeGly(cPent)][NMeD]-Morpholide; lactam N-11) | 0.14 nM | C (A compound having a KD ratio of 0.1 or more and less than 3 is denoted as C) | B (a compound having 3 or more and less than 10 is denoted as B) | – | – | – | – |
| CCO[C@@H]1C[C@H]2C(=O)NC3(CCC3)C(=O)N(C)[C@@H](C3CCCC3)C(=O)N(CCC3CCC3)[C@H](C(=O)N3CCOCC3)CC(=O)N(C)[C@@H](CC(C)C)C(=O)N[C@@H]([C@@H](C)CC)C(=O)N(C)CC(=O)N(C)[C@H]3CCCCN(C3=O)[C@@H](Cc3ccc(C(F)(F)F)cc3)C(=O)N(C)CC(=O)N[C@@H](CCc3cc(F)c(C(F)(F)F)c(F)c3)C(=O)N2C1 [PP0650] | 0.62 nM | C (A compound having a KD ratio of 0.1 or more and less than 3 is denoted as C) | B (a compound having 3 or more and less than 10 is denoted as B) | – | – | – | – |
| CCO[C@@H]1C[C@H]2C(=O)NC3(CCCC3)C(=O)N(C)[C@@H](C3CCCC3)C(=O)N(C)[C@H](C(=O)N3CCOCC3)CC(=O)N(C)[C@@H](COC)C(=O)N[C@@H]([C@@H](C)CC)C(=O)N(C)CC(=O)N(C)[C@H]3CCCCCN(C3=O)[C@@H](Cc3ccc(C(F)(F)F)cc3)C(=O)N(C)CC(=O)N[C@@H](CCc3cc(F)c(C(F)(F)F)c(F)c3)C(=O)N2C1 [PP0841] | – | – | – | 0.73 nM | B (a compound having 3 or more and less than 10 is denoted as B) | B (a compound having 3 or more and less than 10 is denoted as B) | – |
| CC[C@H](C)[C@@H]1NC(=O)[C@H](CC(C)C)N(C)C(=O)C[C@@H](C(=O)N2CCOCC2)N(C)C(=O)[C@H](C2CCCC2)N(C)C(=O)C2(CCC2)NC(=O)[C@@H]2C[C@@H](OC)CN2C(=O)[C@H](CCc2cc(F)c(C(F)(F)F)c(F)c2)NC(=O)CN(C)C(=O)[C@H](Cc2ccc(C(F)(F)F)cc2)N2CCCCC[C@@H](C2=O)N(C)C(=O)CN(C)C1=O [PP1016] | – | – | – | 0.27 nM | A (a compound having 10 or more and less than 20 is denoted as A) | B (a compound having 3 or more and less than 10 is denoted as B) | – |
| CC[C@H](C)[C@@H]1NC(=O)[C@H](CC2CC2)N(C)C(=O)C[C@@H](C(=O)N(C)C)N(C)C(=O)[C@H](C2CCCC2)N(C)C(=O)C2(CCCC2)NC(=O)[C@@H]2CC(F)(F)CN2C(=O)[C@H](CCc2cc(F)c(C(F)(F)F)c(F)c2)NC(=O)CN(C)C(=O)[C@H](Cc2ccc(C(F)(F)F)cc2)N2CC/C=C\C[C@@H](C2=O)N(C)C(=O)CN(C)C1=O [PP1513, (2S,8S,14S,20S,23S,27S,30S,36S,38Z)-20-cyclopentyl-27-(cyclopropylmethyl)-8-[2-[3,5-difluoro-4-(trifluoromethyl)phenyl]ethyl]-12,12-difluoro-N,N,4,19,22,26,32,35-octamethyl-30-[(1S)-1-methylpropyl]-3,6,9,15,18,21,25,28,31,34,42-undecaoxo-2-[[4-(trifluoromethyl)phenyl]methyl]spiro[1,4,7,10,16,19,22,26,29,32,35-undecazatricyclo[34.5.1.0^10,14]dotetracont-38-ene-17,1′-cyclopentane]-23-carboxamide] | – | – | – | – | – | – | Kd ([1]; SPR, Single Cycle Kinetics, 1:1 binding model): 0.071 nM; NRAS/KRAS (ratio of KD value for NRAS to KD value for KRAS) ([2]; KD ratio class): A (a compound having 10 or more and less than 20 is denoted as A); HRAS/KRAS (ratio of KD value for HRAS to KD value for KRAS) ([3]; KD ratio class): A (a compound having 10 or more and less than 20 is denoted as A) |
| CCCN1C(=O)CN(C)C(=O)CN(C)C(=O)[C@H]([C@@H](C)CC)NC(=O)[C@H](CC(C)C)N(C)C(=O)C[C@@H](C(=O)N(C)C)N(C)C(=O)[C@H](C2CCCC2)N(C)C(=O)C2(CCCC2)NC(=O)[C@@H]2CCCN2C(=O)[C@H](CCc2ccc(C(F)(F)F)c(Cl)c2)NC(=O)CN(C)C(=O)[C@@H]1Cc1ccc(C(F)(F)F)cc1 [PP0169] ([NMeL]I[Sar][Sar][NPrPhe(4-CF3)][Sar][hPhe(3-Cl-4-CF3)]P[Ac5c][NMeGly(cPent)][NMeD]-NMe2; lactam N-11) | 0.035 nM | – | – | – | B (a compound having 3 or more and less than 10 is denoted as B) | B (a compound having 3 or more and less than 10 is denoted as B) | – |
| CCO[C@@H]1C[C@H]2C(=O)NC3(CCC3)C(=O)N(C)[C@@H](C3CCCC3)C(=O)N(C)[C@H](C(=O)N3CCOCC3)CC(=O)N(C)[C@@H](COC)C(=O)N[C@@H]([C@@H](C)CC)C(=O)N(C)CC(=O)N(C)[C@H]3CCCCCN(C3=O)[C@@H](Cc3ccc(C(F)(F)F)cc3)C(=O)N(C)CC(=O)N[C@@H](CCc3ccc(C(F)(F)F)c(F)c3)C(=O)N2C1 [PP0848] | – | – | – | 0.57 nM | B (a compound having 3 or more and less than 10 is denoted as B) | B (a compound having 3 or more and less than 10 is denoted as B) | – |
| CCO[C@@H]1C[C@H]2C(=O)NC3(CCC3)C(=O)N(C)[C@@H](C3CCCC3)C(=O)N(C)[C@H](C(=O)N(C)C)CC(=O)N(C)[C@@H](CC3CCCC3)C(=O)N[C@@H]([C@@H](C)CC)C(=O)N(C)CC(=O)N(C)[C@H]3C/C=C\CCN(C3=O)[C@@H](Cc3ccc(C)cc3)C(=O)N(C)CC(=O)N[C@@H](CCc3cc(F)c(CC)c(OC)c3)C(=O)N2C1 [PP2674] | 0.5 nM | – | – | – | – | – | NRAS/KRAS (ratio of KD value with respect to GDP-bound NRAS wild-type protein to KD value with respect to KRAS) ([2]; SPR KD ratio NRAS/KRAS, class symbols): A (a compound having 10 or more and less than 20 is denoted as A); HRAS/KRAS (ratio of KD value with respect to GDP-bound HRAS wild-type protein to KD value with respect to KRAS) ([3]; SPR KD ratio HRAS/KRAS, class symbols): A (a compound having 10 or more and less than 20 is denoted as A) |
| CC[C@H](C)[C@@H]1NC(=O)[C@H](CC(C)C)N(C)C(=O)C[C@@H](C(=O)N2CCOCC2)N(C)C(=O)[C@H](C2CCCC2)N(C)C(=O)C2(CCOCC2)NC(=O)[C@@H]2CCCN2C(=O)[C@H](CCc2cc(F)c(C(F)(F)F)c(F)c2)NC(=O)CN(C)C(=O)[C@H](Cc2ccc(C(F)(F)F)cc2)N2CCCCC[C@@H](C2=O)N(C)C(=O)CN(C)C1=O [PP0502] | 12 nM | A (a compound having 10 or more and less than 20 is denoted as A) | B (a compound having 3 or more and less than 10 is denoted as B) | – | – | – | – |
| CCO[C@@H]1C[C@H]2C(=O)NC3(CC(C)(C)C3)C(=O)N(C)[C@@H](C(CC)CC)C(=O)N(C)[C@H](C(=O)N(C)C)CC(=O)N(C)[C@@H](CC3CC3)C(=O)N[C@@H]([C@@H](C)CC)C(=O)N(C)CC(=O)N(C)[C@H]3C/C=C\CCN(C3=O)[C@@H](Cc3ccc(C)cc3)C(=O)N(C)CC(=O)N[C@@H](CCc3cc(F)c(C(F)(F)F)c(F)c3)C(=O)N2C1 [PP2137] | – | – | – | 0.37 nM | A (a compound having 10 or more and less than 20 is denoted as A) | A (a compound having 10 or more and less than 20 is denoted as A) | – |
